From patent US8546419B2, “Dual phase drug release system” (priority 2003, dated 2013)
Like-named read-outs stand apart in the source and are kept apart here.

Tests used:
[1] = Procedure: The resultant suspension was diluted to 150 ml and extracted with methylene chloride (3×150 ml). Methylene chloride layers were combined, washed with 0.01 N HCl, and dried over magnesium sulfate. Solvent was removed in vacuum.
[2] = Hydrolytic stability and CPT release in aqueous media / phosphate buffered saline (RP HPLC); assay type: physicochemical
Procedure: The second stage hydrolysis of CPT-SI was investigated analogously.
Using procedures analogous to the described above, CPT release from these conjugates was investigated in phosphate buffered saline as described above. The conjugates were also tested for cytotoxicity in HT29 cell culture.

HT29 cell culture = assay: Cytotoxicity of CPT derivatives, MTT assay; assay type: cell-based, human; conditions: HT-29 cell culture, 72 hours post treatment, read-out: ID50, growth inhibition
Procedure: Human colorectal adenocarcinoma HT-29 cell culture was from ATCC (ATCC HTB-38).
Cytotoxicity of CPT derivatives was investigated in HT29 cell culture. Cells were grown in McCoy's 5a medium with 1.5 mM L-glutamine supplemented with 10% FBS.

in vivo = conditions: mouse
Procedure: The toxicity of CPT was evaluated in normal outbred mice, as well as in xenograft bearing nude athymic animals in the course of antineoplastic activity studies.

HT-29 xenograft = assay type: in vivo; conditions: HT29 model; for time of tumor growth from 0.10-0.15 cm^3 to 1.5 cm^3: 22.5 mg/kg, untreated control 24 days
Procedure: Camptothecin and CPT-SI (the first phase release product) were used as controls.
Cells were injected subcutaneously into the left flank, 10^6 cells per animal in 50 μl. […] Animals of the first three groups received the respective experimental substance via the tail vein in five doses every three days (5xq3D). […] CPT and CPT-SI were administered as dispersions in Tween 80/water (9/1 v/v). Animal weight, tumor size, animal appearance, behavior, and survival rate were monitored for four weeks after administration. Weight loss over 20% and tumor growth over 1500 mm^3 were counted as lethalities (animals were euthanized).
The latter were administered as Cremofor® emulsions.

[3] = test system: HT-29 human colorectal carcinoma cells; assay: Cell growth inhibition in vitro by Taxol preparations; assay type: cell-based; conditions: HT-29 cells, conjugate with Taxol content of 13%, read-out: ED50, cell growth inhibitory efficacy
Procedure: PHF-SAG-Taxol conjugate synthesis was carried out on a 2-gram scale, at ambient temperature, pH 5.5-6.0. […] The PHF-SAG-Taxol was purified of low molecular weight impurities by gel filtration on G25 Sefadex column equilibrated with DI water, and recovered by lyophilyzation. […] Stability of PHF-Taxol conjugates in aqueous media was monitored by HPLC.

For “1,1-Dimethylsuccinic Acid-Linked PHF-CPT [PHF-DMSA-CPT]”, the “solubility (in words)” value [1] was “soluble in water, saline and polar organic solvents” and the CPT half-release time ([2]; PBS at pH 7.47/37° C., first phase release) was 0.6 h.

In the case of CC[C@@]1(O)C(=O)OCc2c1cc1n(c2=O)Cc2cc3ccccc3nc2-1 [CPT, camptothecin, reference compound], the IC50 (HT29 cell culture; Homo sapiens) is reported as 17 nM, the MTD (in vivo) is reported as 9 to 10 mg/kg and the “time of tumor growth from 0.10-0.15 cm^3 to 1.5 cm^3” value (HT-29 xenograft) is reported as 40 days.

Work on CCc1c2c(nc3ccc(OC(=O)N4CCC(N5CCCCC5)CC4)cc13)-c1cc3c(c(=O)n1C2)COC(=O)[C@]3(O)CC [Irinotecan] yielded an MTD (in vivo) of 9 to 10 mg/kg.

Work on CC(=O)O[C@H]1C(=O)[C@@]2(C)[C@H]([C@H](OC(=O)c3ccccc3)[C@]3(O)C[C@H](OC(=O)[C@H](O)[C@@H](NC(=O)c4ccccc4)c4ccccc4)C(C)=C1C3(C)C)[C@]1(OC(C)=O)CO[C@@H]1C[C@@H]2O [Taxol] yielded an EC50 [3] of 15 nM.

With “Camptothecin-20-(N-succinimidoglycinate) [CPT-SI]” the solubility in water [1] was < 1.0 µg/mL, the “half-time of subsequent (second stage) hydrolysis” value ([2]; depending on the conditions) was “over 20 hrs” and the IC50 (HT29 cell culture) was 34 nM. For the same compound, the “effect on tumor dynamics” value (HT-29 xenograft) was “no significant effect on tumor dynamics” and the “time of tumor growth from 0.10-0.15 cm^3 to 1.5 cm^3” value (HT-29 xenograft) was 27 days.
